Experimental findings from patent publication US11208407B2, “Substituted phenyl compounds as indoleamine 2,3-dioxygenase (IDO) inhibitors” (Merck Sharp & Dohme Corp., priority 2017, dated 2021) are described below.

For orientation: IC50 means the concentration that inhibits the measured activity by half.

Assay [1] concerns the target T1, IDO1 (Homo sapiens, UniProt P14902). Description: IDO1 Cellular Assay in HeLa Cells Stimulated with IFNγ. Particulars: IFNγ 100 ng/mL, 300 uM L-tryptophan, about 48 hours, read-out: IDO HeLa Cell Assay, IC50. The assay is classed as cell-based. On the procedure:
Biological Assays IDO1 Cellular Assay in HeLa Cells Stimulated with IFNγ
HeLa cells were cultured in complete HeLa culture medium (90% EMEM, 10% heat-inactivated fetal bovine serum) and expanded to about 1×10^9 cells. The cells were then collected and frozen down at 1×10^7 cells/vial in 1 mL frozen medium (90% complete HeLa culture medium, 10% DMSO).
Compounds to be tested were serially diluted in ten 3-fold steps in DMSO starting from 10 mM DMSO stocks in Echo low volume plate(s). Compound dilutions or DMSO alone were then dispensed from the dilution plate(s) into Greiner black 384-well assay plate(s) (catalog #781086, 50 nL/well) using an Echo 550 acoustic liquid handler (Labcyte).
Frozen HeLa cells were thawed and transferred into HeLa assay medium (99% complete HeLa culture medium, 1% Pen/Strep) with 20 mL medium/vial of cells. The cells were spun down at 250 g in a table top centrifuge for 5 min and suspended in same volume of HeLa assay medium. The cells were then counted and adjusted to a density of 2×10^5 cells/mL in HeLa assay medium. Sterile L-tryptophan were added to the cells with final concentration of 300 uM L-tryptophan. A small aliquot (2 mL/plate) of HeLa cells were set aside and were not treated with IFNγ, to serve as the Max-E control.
HeLa cells with and without IFNγ were dispensed to the respective wells of 384-well assay plates containing the compounds. The plates were incubated for about 48 hours at a 37° C., 5% CO2 incubator. Afterwards, 12 μL of 0.5 M methyl isonipecotate in dimethyl sulfoxide were added into each well and the plates were sealed and incubated at 37° C. without CO2 overnight. The plates were centrifuged for 1 min at 200×g. The resulting fluorescence was measured in a Spectramax plate reader (Molecular Devices) with a 400 nm excitation filter and a 510 nm emission filter.
The fluorescence intensity of each well was corrected for the background observed in wells with non-IFNγ-treated cells and was expressed as a fraction of the intensity observed in wells of IFNγ-treated cells and DMSO only. Potencies were calculated by linear least squares fit to the four parameter logistic IC50 equation.

Assay [2] deals with T1, IDO1. Description: IDO1 Human Whole Blood Assay. The arrangement: Human whole blood was drawn in sodium heparin coated tubes from healthy internal donors; from tissue; host or cells: Human whole blood from healthy donors, stimulated with LPS and IFNγ. To be noted: LPS and IFNγ 100 ng/mL, 18 h, kynurenine by LC/MS/MS. In kind it is cell-based. How it is done: IDO1 Human Whole Blood Assay
Compounds to be tested were serially diluted in ten 3-fold steps in DMSO starting from 10 mM. 3 µL of compound dilutions or DMSO alone were then dispensed from the dilution plate into a polypropylene 96-well assay plate containing 97 µL of RPMI medium using an Echo 555 acoustic liquid handler (Labcyte). LPS (lipopolysaccharide) and IFNγ was prepared in RPMI to a 10× of final conc. (1000 ng/mL), final concentration is 100 ng/mL.
Human whole blood was drawn in sodium heparin coated tubes from healthy internal donors. 240 µL of blood was transferred to each of the wells of a v-bottom 96 well plate. 30 µL of compound was transferred from intermediate dilution plate, and incubated for 15 min. 30 μL from stimulants was then transferred to blood and mixed thoroughly. Plate was covered with breathable membrane and incubated at 37° C. for overnight (18 h).
On day 2, isotope labeled standard solutions of kunurenine and tryptophan was made in water at 10× concentration and 30 µL was added to the blood at 3 µM final concentration. The assay plates were centrifuged at 300×G for 10 min with no brake to separate plasma from red blood cells. 60 µL of plasma samples was removed without disturbing red blood cells. Plasma was diluted with RPMI medium in 1:1 ratio and proteins were precipitated out with two volumes of Acetonitrile. The plates were centrifuged at 4000×G for 60 min. 20 µL of supernatant was carefully transferred to a 384 well plate containing 40 µL of 0.1% formic acid in water and analyzed by LC/MS/MS.
LC/MS/MS analyses were performed using Thermo Fisher's LX4-TSQ Quantum Ultra system. This system consists of four Agilent binary high-performance liquid chromatography (HPLC) pumps and a TSQ Quantum Ultra triple quadrupole MS/MS instrument. For each sample, 5 µL were injected onto an Atlantis T3 column (2.1 mm×150 mm, 3 µm particle size) from Waters. The mobile phase gradient pumped at 0.8 mL/min was used to elute the analytes from the column at 25° C. The elution started at 0% B increasing linearly to 25% B at 6.5 min, holding at 25% for 1 min, re-equilibrating to 10 min. Mobile phase A consisted of 0.1% formic acid in water. Mobile phase B consisted of 0.1% of formic acid in acetonitrile. Data was acquired in positive mode using a HESI interface. The operational parameters for the TSQ Quantum Ultra instrument were a spray voltage of 4000 V, capillary temperature of 380° C., vaporizer temperature 400° C., shealth gas 60 arbitrary units, Aux gas 20 arbitrary units, tube lens 85 and collision gas 1.2 mTorr. SRM (selected-reaction monitoring) chromatograms of kynurenine (Q1: 209.2>Q3:94.0) and internal standard (Q1: 215.3>Q3:98.2) were collected for 90 sec. The peak area was integrated by Xcalibur Quan software. The ratios between the kynurenine generated in the reaction and 2D6-Kynurenine spiked-in internal standard were used to generate percentage inhibition and IC50 values. Compounds were titrated and IC50's were calculated by 4 parameter sigmoidal curve fitting formula.

SMILES strings stand for the structures.

T1 sequence (P14902 whole entry): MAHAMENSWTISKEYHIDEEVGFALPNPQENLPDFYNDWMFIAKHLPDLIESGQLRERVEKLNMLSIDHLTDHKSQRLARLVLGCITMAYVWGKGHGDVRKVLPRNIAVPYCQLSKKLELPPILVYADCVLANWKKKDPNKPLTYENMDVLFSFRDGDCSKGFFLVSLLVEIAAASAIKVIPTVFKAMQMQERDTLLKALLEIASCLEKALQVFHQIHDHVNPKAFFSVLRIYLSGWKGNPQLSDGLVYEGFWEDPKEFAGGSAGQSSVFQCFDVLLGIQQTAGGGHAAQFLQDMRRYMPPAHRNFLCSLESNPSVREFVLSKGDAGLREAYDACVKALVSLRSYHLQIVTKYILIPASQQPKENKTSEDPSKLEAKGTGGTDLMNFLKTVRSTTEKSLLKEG

On to `CC(C)(O)c1cc(C(F)(F)F)ncc1-c1ccc(C2(c3nc4cc(Cl)ccc4[nH]3)CCC2)cc1` [Example 49, 2-[5-{4-[1-(5-chloro-1H-benzimidazol-2-yl)cyclobutyl]phenyl}-2-(trifluoromethyl)pyridin-4-yl]propan-2-ol], for which the IC50 at IDO1 [1] was 1.7 nM; at IDO1 [2], 72.9 nM.
For `OCc1cc(OC(F)F)ncc1-c1ccc(C2(c3nc4cc(Cl)ccc4[nH]3)CCC2)cc1` [Example 47, [5-{4-[1-(5-chloro-1H-benzimidazol-2-yl)cyclobutyl]phenyl}-2-(difluoromethoxy)pyridin-4-yl]methanol], the concentration for half-maximal inhibition (IC50) on IDO1 [1] is 3.94 nM; at IDO1 [2], 191 nM.
The like results for `OCc1cc(C(F)(F)F)ncc1-c1ccc(C2(c3nc4ncc(Cl)cc4[nH]3)COC2)cc1` [Example 50, (5-(4-(3-(6-chloro-1H-imidazo[4,5-b]pyridin-2-yl)oxetan-3-yl)phenyl)-2-(trifluoromethyl)pyridin-4-yl)methanol] were, in that order, 3.03 nM and 4040 nM.
Regarding `N#Cc1cccc(C(=O)Nc2ccc(C3(c4nc5cc(Br)cnc5[nH]4)CCC3)cc2F)c1` [Example 16, N-(4-(1-(6-bromo-3H-imidazo[4,5-b]pyridin-2-yl)cyclobutyl)-2-fluorophenyl)-3-cyanobenzamide], the IC50 was 1.17 nM on IDO1 [1] and 35.5 nM on IDO1 [2].
For the compound `OCc1cc(C(F)(F)F)ncc1-c1ccc(C2(c3nc4ccc(Cl)cc4[nH]3)CCC2)cc1` [Example 52, [5-{4-[1-(6-chloro-1H-benzimidazol-2-yl)cyclobutyl]phenyl}-2-(trifluoromethyl)pyridin-4-yl]methanol], the results for the IC50 at IDO1 [1] and against IDO1 [2] were 1.1 nM and 91 nM, respectively.
With `N#Cc1cccc(C(=O)Nc2ccc(C3(c4nc5ncc(C#N)cc5[nH]4)CCC3)cc2)c1` [Example 3, 3-Cyano-N-(4-(1-(6-cyano-1H-imidazo[4,5-b]pyridin-2-yl)cyclobutyl)phenyl)benzamide], the figures for the IC50 at IDO1 [1] and against IDO1 [2] were 3.97 nM and 75.1 nM, respectively.
`O=C(Nc1cccc(Cl)c1)c1ccc(C2(c3nc4ncc(C(F)(F)F)cc4[nH]3)CCC2)cc1` [Example 27, N-(3-chlorophenyl)-4-(1-(6-(trifluoromethyl)-1H-imidazo[4,5-b]pyridin-2-yl)cyclobutyl)benzamide]: the IC50 on IDO1 [1] turned out to be 1.48 nM; against IDO1 [2] it was 169 nM.
Take `N#Cc1cccc(C(=O)Nc2ccc(C3(c4nc5ncc(Cl)cc5[nH]4)CCC3)cc2)c1` [Example 10, N-{4-[1-(6-chloro-1H-imidazo[4,5-b]pyridin-2-yl)cyclobutyl]phenyl}-3-cyanobenzamide]: the values for the IC50 on IDO1 [1] and at IDO1 [2] were 3.25 nM and 132 nM, respectively.
Turning to `Cc1cc(OC(F)F)nc(C)c1-c1ccc(C2(c3nc4cc(Cl)ccc4[nH]3)CCC2)cc1` [Example 48, 5-chloro-2-(1-{4-[6-(difluoromethoxy)-2,4-dimethylpyridin-3-yl]phenyl}cyclobutyl)-1H-benzimidazole], the IC50 at IDO1 [1] is 2.44 nM; against IDO1 [2], 130 nM.
For `Cc1cc(OC(F)F)nc(C)c1-c1ccc(C2(c3nc4cc(C(F)(F)F)cnc4[nH]3)COC2)cc1` [Example 42, 2-(3-{4-[6-(difluoromethoxy)-2,4-dimethylpyridin-3-yl]phenyl}oxetan-3-yl)-6-(trifluoromethyl)-3H-imidazo[4,5-b]pyridine], the IC50 worked out at 2.16 nM at IDO1 [1] and 445 nM at IDO1 [2].
As to `OCc1cc(C(F)(F)F)ncc1-c1ccc(C2(c3nc4ccc(Cl)cc4[nH]3)COC2)cc1` [Example 51, [5-{4-[3-(6-chloro-1H-benzimidazol-2-yl)oxetan-3-yl]phenyl}-2-(trifluoromethyl)pyridin-4-yl]methanol], the IC50 at IDO1 [1] was found to be 1.76 nM; against IDO1 [2], 284 nM.
Taken in the same sequence, the figures for `N#Cc1cccc(C(=O)Nc2ccc(C3(c4nc5ccc(C#N)cc5[nH]4)CC(F)C3)cc2)c1` (centres unmarked) [Example 26, 3-Cyano-N-(4-(1-(6-cyano-1H-benzo[d]imidazol-2-yl)-3-fluorocyclobutyl)phenyl)benzamide] were 1.84 nM and 182 nM.
As for `N#Cc1cccc(C(=O)Nc2ccc(C3(c4nc5ccc(Cl)cc5[nH]4)CC(F)C3)cc2)c1` (centres unmarked) [Example 25, N-(4-(1-(6-chloro-1H-benzo[d]imidazol-2-yl)-3-fluorocyclobutyl)phenyl)-3-cyanobenzamide], the figures for the IC50 at IDO1 [1] and at IDO1 [2] were 1.07 nM and 47.6 nM, respectively.
As for `N#Cc1cccc(C(=O)Nc2ccc(C3(c4nc5ccc(Cl)cc5[nH]4)COC3)cc2)c1` [Example 11, N-(4-(3-(6-chloro-1H-benzo[d]imidazol-2-yl)oxetan-3-yl)phenyl)-3-cyanobenzamide], the figures for the IC50 at IDO1 [1] and against IDO1 [2] were 1.56 nM and 22.9 nM, respectively.
In the case of `COc1cc(C)c(-c2ccc(C3(c4nc5cc(C(F)(F)F)cnc5[nH]4)COC3)cc2)c(C)n1` [Example 43, 2-{3-[4-(6-methoxy-2,4-dimethylpyridin-3-yl)phenyl]oxetan-3-yl}-6-(trifluoromethyl)-3H-imidazo[4,5-b]pyridine], the IC50 at IDO1 [1] was 2.81 nM; against IDO1 [2], 606 nM.
As to `OCc1cc(C(F)(F)F)ncc1-c1ccc(C2(c3nc4cc(C(F)(F)F)cnc4[nH]3)COC2)cc1` [Example 45, [2-(trifluoromethyl)-5-(4-{3-[6-(trifluoromethyl)-3H-imidazo[4,5-b]pyridin-2-yl]oxetan-3-yl}phenyl)pyridin-4-yl]methanol], the IC50 was determined as 15.4 nM at IDO1 [1] and 2700 nM against IDO1 [2].
For the compound `Cc1cc(C2CC2)ncc1-c1ccc(C2(c3nc4ncc(C#N)cc4[nH]3)CCC2)cc1` [Example 39, 2-(1-(4-(6-Cyclopropyl-4-methylpyridin-3-yl)phenyl)cyclobutyl)-1H-imidazo[4,5-b]pyridine-6-carbonitrile], the IC50 came out at 3.6 nM at IDO1 [1] and 182 nM against IDO1 [2].
Regarding `OCc1cc(C(F)(F)F)ncc1-c1ccc(C2(c3nc4ncc(Cl)cc4[nH]3)CCC2)cc1` [Example 46, [5-{4-[1-(6-chloro-1H-imidazo[4,5-b]pyridin-2-yl)cyclobutyl]phenyl}-2-(trifluoromethyl)pyridin-4-yl]methanol], the IC50 at IDO1 [1] was determined as 2.28 nM; against IDO1 [2], 238 nM.
Turning to `N#Cc1cccc(C(=O)Nc2ccc(C3(c4nc5cc(Cl)cnc5[nH]4)CCC3)cc2F)c1` [Example 18, N-{4-[1-(6-chloro-3H-imidazo[4,5-b]pyridin-2-yl)cyclobutyl]-2-fluorophenyl}-3-cyanobenzamide], the IC50 came to 0.736 nM at IDO1 [1] and 103 nM against IDO1 [2].
